Experimental data published in patent US6605638B1, “Use of branched chain fatty acids and derivatives thereof for inhibition of P-glycoprotein” (D-Pharm Limited, priority 2000, dated 2003).

Legend:
[1] = system: endothelial cell monolayers; experiment: [14C]-sucrose permeability (integrity) of endothelial cell monolayers, in vitro BBB model
[2] = biological target: T1, P-glycoprotein (Bos taurus, UniProt A0A3Q1MB23); experiment: Vincristine accumulation (uptake) in endothelial cells, in vitro BBB model
[3] = biological target: T1, P-glycoprotein; experiment: Vincristine transport/clearance across endothelial cell monolayers, in vitro BBB co-culture model; assay type: cell-based, bovine; set-up: P-glycoprotein is expressed in cultured endothelial cells; endogenous in cells; host or cells: primary bovine brain capillary endothelial cells, co-cultured with newborn rat astrocytes in the lower compartment
[4] = system: MES-SA/Dx5 cells; experiment: MTT assay of doxorubicin toxicity in multi-drug resistant cells; conditions: for % Toxicity: alone, 72 hours

T1 sequence (A0A3Q1MB23 1-1267): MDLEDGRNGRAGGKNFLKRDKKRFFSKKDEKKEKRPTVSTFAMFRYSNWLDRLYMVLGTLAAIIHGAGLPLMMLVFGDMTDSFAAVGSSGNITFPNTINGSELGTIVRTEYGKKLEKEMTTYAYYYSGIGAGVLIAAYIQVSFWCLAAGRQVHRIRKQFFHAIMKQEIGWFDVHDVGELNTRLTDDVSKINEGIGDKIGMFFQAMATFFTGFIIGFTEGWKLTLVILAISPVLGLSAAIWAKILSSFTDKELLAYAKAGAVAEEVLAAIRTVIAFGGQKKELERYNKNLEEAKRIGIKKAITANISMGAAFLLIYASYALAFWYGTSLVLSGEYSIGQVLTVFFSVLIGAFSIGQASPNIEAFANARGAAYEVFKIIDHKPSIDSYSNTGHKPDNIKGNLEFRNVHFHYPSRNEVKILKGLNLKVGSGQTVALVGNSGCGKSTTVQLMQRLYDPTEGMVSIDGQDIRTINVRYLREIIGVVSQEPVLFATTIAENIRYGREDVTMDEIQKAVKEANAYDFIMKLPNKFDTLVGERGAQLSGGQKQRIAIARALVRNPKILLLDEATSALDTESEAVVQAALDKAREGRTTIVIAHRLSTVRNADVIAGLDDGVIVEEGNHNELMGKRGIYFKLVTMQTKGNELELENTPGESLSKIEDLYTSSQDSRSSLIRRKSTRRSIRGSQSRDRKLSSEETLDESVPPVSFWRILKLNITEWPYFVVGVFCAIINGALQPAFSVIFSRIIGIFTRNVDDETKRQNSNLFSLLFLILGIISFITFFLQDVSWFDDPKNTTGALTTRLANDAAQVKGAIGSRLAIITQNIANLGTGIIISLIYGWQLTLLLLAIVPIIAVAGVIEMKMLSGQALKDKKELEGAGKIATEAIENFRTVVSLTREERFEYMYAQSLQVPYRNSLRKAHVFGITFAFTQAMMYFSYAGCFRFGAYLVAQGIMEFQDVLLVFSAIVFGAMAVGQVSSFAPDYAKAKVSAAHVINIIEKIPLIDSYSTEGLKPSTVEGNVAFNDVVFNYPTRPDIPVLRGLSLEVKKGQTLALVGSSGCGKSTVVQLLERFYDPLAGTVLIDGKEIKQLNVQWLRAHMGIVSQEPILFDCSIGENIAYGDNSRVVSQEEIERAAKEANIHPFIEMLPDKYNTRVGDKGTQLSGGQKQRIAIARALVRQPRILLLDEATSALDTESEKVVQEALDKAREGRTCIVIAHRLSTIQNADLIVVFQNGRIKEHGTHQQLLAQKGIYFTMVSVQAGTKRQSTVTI

CCCCCCCCCCCCCCC(CCC)C(=O)O (stereo not drawn) [DP-3,14, 2-propylhexadecanoic acid]
Paracellular breakdown (opening of the tight junctions) of endothelial cells ([1]; 0.01 mg/ml, 48 hours incubation): no paracellular breakdown
Sucrose permeability of the monolayer ([1]; Example 4, 0.08 mg/ml, 60 min): 274%
Sucrose permeability of the monolayer ([1]; Example 4, 0.16 mg/ml, 60 min): 266%
Sucrose permeability of the monolayer ([1]; Example 4, […], 60 min): 278%
Sucrose permeability of the monolayer (significant decrease) ([1]; Example 5, 0.001 mg/ml): 66%
Sucrose permeability of the monolayer (significant decrease) ([1]; Example 5, 0.005 mg/ml): 68%
Sucrose permeability of the monolayer ([1]; Example 5, 0.01 mg/ml): No change
Sucrose permeability of the monolayer ([1]; Example 5, 0.02 mg/ml, 60 min): 452%
Sucrose permeability of the monolayer ([1]; Example 5, 0.08 mg/ml, 60 min): 574%
Transport of sucrose (paracellular marker) ([1]; Example 5 conclusion, 0.001—0.01 mg/ml): no increase
Cellular accumulation of vincristine compared with verapamil ([2]; Example 4, 0.08 and 0.16 mg/ml, 60 min): more pronounced than the same effect induced by verapamil
Increase in vincristine uptake compared with verapamil ([2]; Example 5, 0.001, 0.005 or 0.01 mg/ml, 60 min): lower than that observed with verapamil
Vincristine accumulation in the cells relative to that caused by verapamil ([2]; Example 5, 0.02 or 0.08 mg/ml, 60 minute incubation): 2-3 fold
Clearance of vincristine ([3]; Example 4, even with lowest concentration 0.08 mg/ml, similar to control without cells): significant clearance
Transport of vincristine ([3]; Example 5, 0.001 mg/ml): significant increase
Transport of vincristine ([3]; Example 5, 0.02 and 0.08 mg/ml): Larger effects
Transport of vincristine ([3]; Example 5 conclusion, low concentration 0.001—0.01 mg/ml): increase

CC[C@]1(O)C[C@H]2CN(CCc3c([nH]c4ccccc34)[C@@](C(=O)OC)(c3cc4c(cc3OC)N(C=O)[C@H]3[C@@](O)(C(=O)OC)[C@H](OC(C)=O)[C@]5(CC)C=CCN6CC[C@]43[C@@H]65)C2)C1 [vincristine, [γ-^3H]Vincristine sulphate, reference compound]
Toxicity for the endothelial cells / integrity of the monolayers ([1]; Example 4, 50 nM vincristine, verapamil 25 μM): not toxic
Permeability coefficient for [14C]-sucrose (Pesucrose) ([1]; Example 4, with 50 nM vincristine): 1.33±0.08 ×10^−3 cm/min

CCCCCCCCCCC(CCC)C(=O)O (stereo not drawn) [DP-3,10, 2-propyldodecanoic acid]
% Toxicity ([4]; 12.5 μg/ml): 0.1%

COc1cccc2c1C(=O)c1c(O)c3c(c(O)c1C2=O)C[C@@](O)(C(=O)CO)C[C@@H]3O[C@H]1C[C@H](N)[C@H](O)[C@H](C)O1 [Dox, doxorubicin, reference compound]
% Toxicity ([4]; 0.125 μg/ml): 0%
Concentration up to which MES-SA/Dx5 cells are resistant ([4]; calibration experiments): ≤ 250 ng/mL

C#CCC(CCCCCCCCCCCC)C(=O)O (stereo not drawn) [DP-3-yl,12, 2,3-propynyltetradecanoic acid]
% Toxicity ([4]; 3.125 μg/ml): 0.48%

CCCCCCCC(CCCCCCC)C(=O)O [DP-7,7, 2-heptylnonanoic acid]
% Toxicity ([4]; 3.125 μg/ml): 0.1%
